Assay results taken from PubChem BioAssay (NCI).
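Protocol summary: plate cells (96-well), add compound at 5 concentrations, incubate 48 h, interpolate endpoints linearly. GI50 is the concentration that inhibits growth by half. TGI is the concentration that stops growth completely.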

Key:
Assay in all cases: NCI anticancer screen, dose series, 48 h
[1] = tested on: RXF 393 renal
[2] = tested on: NCI-H23 lung
[3] = tested on: T-47D breast
[4] = tested on: PC-3 prostate
[5] = tested on: SN12C renal
[6] = tested on: A549 NSCLC
[7] = tested on: OVCAR-4 ovarian
[8] = tested on: BT-549 breast
[9] = tested on: SK-MEL-2 melanoma
[10] = tested on: M14 melanoma
[11] = tested on: SF-539 CNS
[12] = tested on: OVCAR-3 ovarian
[13] = tested on: HT29 colon
[14] = tested on: MALME-3M melanoma
[15] = tested on: SK-OV-3 ovarian
[16] = tested on: EKVX NSCLC
[17] = tested on: MCF7 breast
[18] = tested on: SF-268 CNS
[19] = tested on: A498 renal
[20] = tested on: SK-MEL-5 melanoma
[21] = tested on: HCC-2998 colon
[22] = tested on: NCI-H226 lung
[23] = tested on: ACHN renal
[24] = tested on: NCI/ADR-RES ovarian
[25] = tested on: HCT-116 colon
[26] = tested on: SF-295 CNS
[27] = tested on: MOLT-4 leukemia
[28] = tested on: COLO 205 colon

COc1ccc(C(=S)c2cc(OC)c(OC)c(OC)c2)cc1OC(=O)CCl
GI50 [1]: 22 nM
TGI [1]: > 77300 nM
GI50 [2]: 51 nM
TGI [2]: > 100000 nM
GI50 [3]: 22100 nM
TGI [3]: 79900 nM
GI50 [4]: < 17.2 nM
TGI [4]: > 100000 nM
GI50 [5]: 24.1 nM
TGI [5]: > 100000 nM
GI50 [6]: 84.9 nM
TGI [6]: > 100000 nM
GI50 [7]: 73 nM
TGI [7]: > 100000 nM
GI50 [8]: < 17.5 nM
TGI [8]: 922 nM
GI50 [9]: 33100 nM
TGI [9]: > 100000 nM
GI50 [10]: < 12.5 nM
TGI [10]: > 49600 nM
GI50 [11]: < 11 nM
TGI [11]: 49.9 nM
GI50 [12]: 22.7 nM
TGI [12]: 81.3 nM
GI50 [13]: 1990 nM
TGI [13]: > 100000 nM
GI50 [14]: 580 nM
TGI [14]: > 76600 nM
GI50 [15]: 68.4 nM
TGI [15]: > 100000 nM
GI50 [16]: 652 nM
TGI [16]: > 100000 nM
GI50 [17]: < 15.6 nM
TGI [17]: 43500 nM
GI50 [18]: 54 nM
TGI [18]: > 100000 nM
GI50 [19]: 179 nM
TGI [19]: 2500 nM
GI50 [20]: 14.1 nM
TGI [20]: 61.6 nM
GI50 [21]: 41.8 nM
TGI [21]: > 100000 nM
GI50 [22]: 2770 nM
TGI [22]: > 100000 nM
GI50 [23]: 21.4 nM
TGI [23]: 61500 nM
GI50 [24]: < 12.7 nM
TGI [24]: > 100000 nM
GI50 [25]: < 17.4 nM
TGI [25]: > 100000 nM
GI50 [26]: 35.6 nM
TGI [26]: > 100000 nM
GI50 [27]: < 18.6 nM
TGI [27]: > 100000 nM
GI50 [28]: 1300 nM
TGI [28]: 17000 nM
